This note sets out measurements from patent publication US8937048B2, “Anti-angiogenic compounds” (Covx Technologies Ireland, Limited, priority 2008, dated 2015).

Broadly, the pIC50 is the negative decadic logarithm of the IC50, by convention in mol/L.

pIC50: −log10 of the molar value. Where a SMILES comes first, the peptide text is derived from it. Bridges are numbered along the chain shown (N, C = ends).

The target in this assay is T1, recombinant human VEGF165 (Homo sapiens, UniProt P15692).
T1 sequence (P15692 27-191 isoform P15692-4): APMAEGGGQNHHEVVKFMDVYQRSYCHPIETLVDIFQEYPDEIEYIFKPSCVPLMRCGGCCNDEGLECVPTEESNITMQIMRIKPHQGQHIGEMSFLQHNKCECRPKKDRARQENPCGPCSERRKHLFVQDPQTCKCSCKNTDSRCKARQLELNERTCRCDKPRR
The assay can be described thus: VEGF peptide binding assay (competition ELISA, VEGF165 binding to coated VEGFR2/Fc). As to the method:
High-binding half-well 96-well plates (Costar #3690) were coated with recombinant human VEGFR2/Fc (50 ng/well) in 50 μl PBS, and incubated at 4° C. overnight. After washing the plates three times with 1× washing buffer (KPL Cat#50-65-00) and blocking with Superblock (Scytek #AAA500) at room temperature (RT) for 1 hour, VEGF-peptides of the invention were serially diluted (concentrations: 0.128-10,000 nM) in the presence of 25 ng/ml of recombinant human VEGF165 in […] Superblock, and were then added to the 96-well plates and incubated at RT for 1 hour. Peptides of the invention tested in this fashion were all capped at the amino terminus with a C(O)CH3 group and at the carboxyl terminus with a NH2 group. The plates were then washed three times with washing buffer, and a diluted (1:500) biotinylated anti-human VEGF antibody (R&D systems, Cat# BAF293) was added and incubated at RT for 2 hours. After washing the plates, streptavidin HRP conjugate (1:200 in Superblock) (R&D systems, Cat# DY998) was added to detect the bound anti-VEGF antibody, followed by addition of tetramethylbenzidine (TMB) substrate (Pierce, Cat#34021) for color development. The reaction was stopped with 2 M H2SO4. OD450 was measured using SpectraMax (Molecular Device) with a correction wavelength of 540 nm. The data were analyzed using Prism software. OD450 values were plotted as a function of the concentrations of the VEGF peptides. IC50 values, indicative of the potency of the VEGF peptides to inhibit VEGF-VEGFR2 interaction, were obtained using a sigmoid dose-response curve fit in Prism.
On to `CC[C@H](C)[C@@H]1NC(=O)[C@H](CC(=O)O)NC(=O)[C@@H](NC(=O)[C@H](CC(N)=O)NC(=O)[C@@H]2CCCN2C(=O)[C@H](CCC(=O)O)NC(=O)[C@@H](NC(C)=O)C(C)C)CSSC[C@@H](C(=O)N[C@@H](Cc2ccccc2)C(=O)N[C@@H](CCC(=O)O)C(=O)N[C@@H](CCCNC(=N)N)C(=O)N[C@@H](CC(C)C)C(=O)N[C@@H](Cc2ccc(O)cc2)C(=O)NCC(=O)N[C@@H](Cc2c[nH]c3ccccc23)C(=O)NCC(N)=O)NC(=O)[C@H](CCC(=O)O)NC(=O)[C@H](Cc2c[nH]c3ccccc23)NC(=O)[C@H](C(C)C)NC(=O)[C@H](Cc2c[nH]c3ccccc23)NC(=O)[C@H](CCSC)NC(=O)[C@H](C(C)C)NC(=O)[C@H](Cc2c[nH]cn2)NC1=O` [Compound 42, VEPNCDIHVMWVWECFERLYGWG] (Ac-VEPNCDIHVMWVWECFERLYGWG-NH2; disulfide 5-15 (inferred)), for which the pIC50 is 7.17.

Regarding `CC[C@H](C)[C@@H]1NC(=O)[C@H](CC(=O)O)NC(=O)[C@@H](NC(=O)[C@H](CC(N)=O)NC(=O)[C@@H]2CCCN2C(=O)[C@H](CCC(=O)O)NC(=O)[C@@H](NC(C)=O)C(C)C)CSSC[C@@H](C(=O)N[C@@H](Cc2ccccc2)C(=O)N[C@@H](CCC(=O)O)C(=O)N[C@@H](CCCNC(=N)N)C(=O)N[C@@H](CC(C)C)C(=O)N[C@@H](Cc2ccc(O)cc2)C(=O)NCC(=O)NCC(=O)NCC(N)=O)NC(=O)[C@H](C(C)C)NC(=O)[C@H](Cc2c[nH]c3ccccc23)NC(=O)[C@H](C(C)C)NC(=O)[C@H](Cc2c[nH]c3ccccc23)NC(=O)[C@H](CCSC)NC(=O)[C@H](C(C)C)NC(=O)[C@H](Cc2c[nH]cn2)NC1=O` [Compound 43, VEPNCDIHVMWVWVCFERLYGGG] (Ac-VEPNCDIHVMWVWVCFERLYGGG-NH2; disulfide 5-15), the pIC50 is 7.18. Consider `CC[C@H](C)[C@@H]1NC(=O)[C@H](CC(=O)O)NC(=O)[C@@H](NC(=O)[C@H](CC(N)=O)NC(=O)[C@@H]2CCCN2C(=O)[C@H](CCC(=O)O)NC(=O)[C@@H](NC(C)=O)C(C)C)CSSC[C@@H](C(=O)N[C@@H](Cc2ccccc2)C(=O)N[C@@H](CCC(=O)O)C(=O)N[C@@H](CCCNC(=N)N)C(=O)N[C@@H](CC(C)C)C(=O)N[C@@H](Cc2ccc(O)cc2)C(=O)NCC(=O)N[C@@H](CC(C)C)C(=O)N[C@@H](Cc2ccc(O)cc2)C(N)=O)NC(=O)[C@H](CCC(=O)O)NC(=O)[C@H](Cc2c[nH]c3ccccc23)NC(=O)[C@H](C(C)C)NC(=O)[C@H](Cc2c[nH]c3ccccc23)NC(=O)[C@H](CCSC)NC(=O)[C@H](C(C)C)NC(=O)[C@H](Cc2c[nH]cn2)NC1=O` [Compound 44, VEPNCDIHVMWVWECFERLYGLY] (Ac-VEPNCDIHVMWVWECFERLYGLY-NH2; disulfide 5-15 (inferred)), for which the pIC50 was 7.26.

`CC[C@H](C)[C@@H]1NC(=O)[C@H](CC(=O)O)NC(=O)[C@@H](NC(=O)[C@H](CC(N)=O)NC(=O)[C@@H]2CCCN2C(=O)[C@H](CCC(=O)O)NC(=O)[C@@H](NC(C)=O)C(C)C)CSSC[C@@H](C(=O)N[C@@H](Cc2ccccc2)C(=O)N[C@@H](CCC(=O)O)C(=O)N[C@@H](CCCNC(=N)N)C(=O)N[C@@H](CC(C)C)C(=O)N[C@@H](CO)C(=O)NCC(=O)NCC(=O)NCC(N)=O)NC(=O)[C@H](CCC(=O)O)NC(=O)[C@H](Cc2c[nH]c3ccccc23)NC(=O)[C@H](C(C)C)NC(=O)[C@H](Cc2c[nH]c3ccccc23)NC(=O)[C@H](CCSC)NC(=O)[C@H](C(C)C)NC(=O)[C@H](Cc2c[nH]cn2)NC1=O` [Compound 45, VEPNCDIHVMWVWECFERLSGGG] (Ac-VEPNCDIHVMWVWECFERLSGGG-NH2; disulfide 5-15 (inferred)): the pIC50 is 7.29. Take `CC[C@H](C)[C@@H]1NC(=O)[C@H](CC(=O)O)NC(=O)[C@@H](NC(=O)[C@H](CC(N)=O)NC(=O)[C@@H]2CCCN2C(=O)[C@H](CCC(=O)O)NC(=O)[C@@H](NC(C)=O)C(C)C)CSSC[C@@H](C(=O)N[C@@H](Cc2ccccc2)C(=O)N[C@@H](CCC(=O)O)C(=O)N[C@@H](CCCNC(=N)N)C(=O)N[C@@H](CC(C)C)C(=O)N[C@@H](CCSC)C(=O)N[C@@H](CCCNC(=N)N)C(=O)N[C@@H](CC(C)C)C(=O)N[C@H](C(N)=O)[C@@H](C)O)NC(=O)[C@H](CCC(=O)O)NC(=O)[C@H](Cc2c[nH]c3ccccc23)NC(=O)[C@H](C(C)C)NC(=O)[C@H](Cc2c[nH]c3ccccc23)NC(=O)[C@H](CCSC)NC(=O)[C@H](C(C)C)NC(=O)[C@H](Cc2c[nH]cn2)NC1=O` [Compound 46, VEPNCDIHVMWVWECFERLMRLT] (Ac-VEPNCDIHVMWVWECFERLMRLT-NH2; disulfide 5-15 (inferred)): the pIC50 is 7.36. As to `CC[C@H](C)[C@@H]1NC(=O)[C@H](CC(=O)O)NC(=O)[C@@H](NC(=O)[C@H](CC(N)=O)NC(=O)[C@@H]2CCCN2C(=O)[C@H](CCC(=O)O)NC(=O)[C@@H](NC(C)=O)C(C)C)CSSC[C@@H](C(=O)N[C@@H](Cc2ccccc2)C(=O)N[C@@H](CCC(=O)O)C(=O)N[C@@H](CCCNC(=N)N)C(=O)N[C@@H](CC(C)C)C(=O)N[C@@H](Cc2ccc(O)cc2)C(=O)NCC(N)=O)NC(=O)[C@H](CCC(=O)O)NC(=O)[C@H](Cc2c[nH]c3ccccc23)NC(=O)[C@H](C(C)C)NC(=O)[C@H](Cc2c[nH]c3ccccc23)NC(=O)[C@H](CCSC)NC(=O)[C@H](C(C)C)NC(=O)[C@H](Cc2c[nH]cn2)NC1=O` [Compound 47, VEPNCDIHVMWVWECFERLYG] (Ac-VEPNCDIHVMWVWECFERLYG-NH2; disulfide 5-15 (inferred)), the pIC50 was 7.36.

Turning to `CC[C@H](C)[C@@H]1NC(=O)[C@H](CC(=O)O)NC(=O)[C@@H](NC(=O)[C@H](CC(N)=O)NC(=O)[C@@H]2CCCN2C(=O)[C@H](CCC(=O)O)NC(=O)[C@@H](NC(C)=O)C(C)C)CSSC[C@@H](C(=O)N[C@@H](Cc2ccccc2)C(=O)N[C@@H](CCC(=O)O)C(=O)N[C@@H](CCCNC(=N)N)C(=O)N[C@@H](CC(C)C)C(=O)N[C@H](C(=O)N[C@@H](CCCCN)C(N)=O)C(C)C)NC(=O)[C@H](CCC(=O)O)NC(=O)[C@H](Cc2c[nH]c3ccccc23)NC(=O)[C@H](C(C)C)NC(=O)[C@H](Cc2c[nH]c3ccccc23)NC(=O)[C@H](CCSC)NC(=O)[C@H](C(C)C)NC(=O)[C@H](Cc2c[nH]cn2)NC1=O` [Compound 48, VEPNCDIHVMWVWECFERLVK] (Ac-VEPNCDIHVMWVWECFERLVK-NH2; disulfide 5-15 (inferred)), the pIC50 was 7.37. `CC[C@H](C)[C@@H]1NC(=O)[C@H](CC(=O)O)NC(=O)[C@@H](NC(=O)[C@H](CC(N)=O)NC(=O)[C@@H]2CCCN2C(=O)[C@H](CCC(=O)O)NC(=O)[C@@H](NC(C)=O)C(C)C)CSSC[C@@H](C(=O)N[C@@H](Cc2ccccc2)C(=O)N[C@@H](CCC(=O)O)C(=O)N[C@@H](CCCNC(=N)N)C(=O)N[C@@H](CC(C)C)C(=O)N[C@@H](CCSC)C(=O)N[C@@H](CCCNC(=N)N)C(N)=O)NC(=O)[C@H](CCC(=O)O)NC(=O)[C@H](Cc2c[nH]c3ccccc23)NC(=O)[C@H](C(C)C)NC(=O)[C@H](Cc2c[nH]c3ccccc23)NC(=O)[C@H](CCSC)NC(=O)[C@H](C(C)C)NC(=O)[C@H](Cc2c[nH]cn2)NC1=O` [Compound 49, VEPNCDIHVMWVWECFERLMR] (Ac-VEPNCDIHVMWVWECFERLMR-NH2; disulfide 5-15 (inferred)): the pIC50 is 7.46. As for `CC[C@H](C)[C@H](NC(=O)CNC(=O)[C@H](Cc1ccc(O)cc1)NC(=O)[C@H](CC(C)C)NC(=O)[C@H](CCCNC(=N)N)NC(=O)[C@H](CCC(=O)O)NC(=O)[C@H](Cc1ccccc1)NC(=O)[C@@H]1CSSC[C@H](NC(=O)[C@H](CC(N)=O)NC(=O)[C@@H]2CCCN2C(=O)[C@H](CCC(=O)O)NC(=O)[C@@H](NC(C)=O)C(C)C)C(=O)N[C@@H](CC(=O)O)C(=O)N[C@@H]([C@@H](C)CC)C(=O)N[C@@H](Cc2c[nH]cn2)C(=O)N[C@@H](C(C)C)C(=O)N[C@@H](CCSC)C(=O)N[C@@H](Cc2c[nH]c3ccccc23)C(=O)N[C@@H](C(C)C)C(=O)N[C@@H](Cc2c[nH]c3ccccc23)C(=O)N[C@@H](CCC(=O)O)C(=O)N1)C(=O)N[C@@H](CC(C)C)C(N)=O` [Compound 50, VEPNCDIHVMWVWECFERLYGIL] (Ac-VEPNCDIHVMWVWECFERLYGIL-NH2; disulfide 5-15 (inferred)), the figure is 7.46.
